Laboratory results: US20060116389A1, “Antibacterial oxazolidinones” (ASTRA ZENECA AB, priority 2002, published 2006)
Converted amounts (≈) assume the structure as drawn.

Tests used:
Format in all cases: cell-based
[1] = system: Staphylococcus aureus MRQR (methicillin resistant and quinolone resistant); assay: MIC, agar-dilution, standard in-vitro test system; settings: 10^4 CFU/spot, 37° C., 24 hours
Description: (§1) The following results were obtained on a standard in-vitro test system. The activity is described in terms of the minimum inhibitory concentration (MIC) determined by the agar-dilution technique with an inoculum size of 10^4 CFU/spot. Typically, compounds are active in the range 0.01 to 256 μg/ml.
(§2) Staphylococci were tested on agar, using an inoculum of 10^4 CFU/spot and an incubation temperature of 37° C. for 24 hours—standard test conditions for the expression of methicillin resistance.

[2] = system: Staphylococcus aureus MSQS (methicillin sensitive and quinolone sensitive); assay: MIC, agar-dilution, standard in-vitro test system; settings: 10^4 CFU/spot, 37° C., 24 hours
Description: as §1, §2

[3] = system: Streptococcus pneumoniae; assay: MIC, agar supplemented with 5% defibrinated horse blood; settings: agar + 5% horse blood, 10^4 CFU/spot, 37° C., 5% carbon dioxide, 48 hours
Description: as §1
(§3) Streptococci and enterococci were tested on agar supplemented with 5% defibrinated horse blood, an inoculum of 10^4 CFU/spot and an incubation temperature of 37° C. in an atmosphere of 5% carbon dioxide for 48 hours—blood is required for the growth of some of the test organisms. Fastidious Gram negative organisms were tested in Mueller-Hinton broth, supplemented with hemin and NAD, grown aerobically for 24 hours at 37° C., and with an innoculum of 5×10^4 CFU/well.

[4] = system: Enterococcus faecium; assay: as above; settings: agar + 5% horse blood, 10^4 CFU/spot, 37° C., 5% carbon dioxide, 48 hours
Description: as §1, §3

[5] = system: Linezolid Resistant Streptococcus pneumoniae; assay: as above; settings: agar + 5% horse blood, 48 hours
Description: as §1, §3

[6] = system: Moraxella catarrhalis; assay: MIC, Mueller-Hinton broth supplemented with hemin and NAD; settings: 24 hours, 37° C., 5×10^4 CFU/well
Description: as §1, §3

[7] = system: Haemophilus influenzae; assay: as above; settings: 24 hours, 37° C., 5×10^4 CFU/well
Description: as §1, §3

SMILES: Cn1nnc(-c2ccc(-c3ccc(N4C[C@H](CNc5ccon5)OC4=O)cc3F)cn2)n1 [Example 2]
- MIC [1]: 0.5 mg/L (≈ 1.15 µM)
- MIC [2]: 0.5 mg/L (≈ 1.15 µM)
- MIC [3]: 0.13 mg/L
- MIC [4]: 0.5 mg/L
- MIC [5]: 2 mg/L
- MIC [6]: 0.5 mg/L (≈ 1.15 µM)
- MIC [7]: 64 mg/L (≈ 147 µM)
